Values after ≈ are worked out from the molar mass of the structure shown. Values joined by “and” are separate entries in the source; they are usually repeats but may differ in a detail not shown here. Identical values can stand only once. Like-named read-outs stand apart in the source and are kept apart here. Bounds are passed on as bounds.

Data set [1] concerns bioluminescent E. coli strain. Kind of data set: Mouse urinary tract infection with bioluminescent E. coli. It counts as in vivo, C57BL/6 mice. Particulars: 80 mg/kg intraperitoneal at 2, 24 and 48 hours; 72 hours after infection. Here is the method: C57BL/6 mice were transurethrally inoculated with bioluminescent E. coli strain and treated with PBS, linezolid (80 mg/kg), and linezolid conjugated with 3FG6P (80 mg/kg) at 2, 24, and 48 hours after inoculation. 72 hours after inoculation, the progress of the infection was monitored using a IVIS Lumina XR small animal imaging system and the bacterial burden in the kidney and bladder was determined by a plate counting method.
To test the in vivo antimicrobial activity of linezolid and linezolid conjugated with 3FG6P, clinical E. coli strains were constructed that constitutively express a bioluminescent light signal using pLuxABCDE plasmid. See Karsi A. Lawrence M L. Broad host range fluorescence and bioluminescence expression vectors for Gram-negative bacteria. Plasmid. 2007; 57(3):286-95. Epub 2007/01/09. doi: 10.1016/j.plasmid.2006.11.002. PubMed PMID: 17207855 for real time monitoring of the progress of infections. Six- to eight-week old female C57BL/6 mice were purchased from Harlan laboratory and were housed and maintained according to the protocol approved by the institutional animal care and use committee at Mississippi State University. Animals (n=6/group) were transurethrally infected with 50 μl of bioluminescent E. coli strain suspended in PBS (2×10^9 CFU/ml). Animals were treated with an intraperitoneal injection of linezolid (80 mg/kg), linezolid conjugated with 3FG6P (80 mg/kg) or PBS control at 2, 24, and 48 hours after infection. The progress of the infection was monitored by measuring the bioluminescent light signal using an IVIS Lumina X R small animal imaging system. After 72 hours infection, animals were humanely euthanized and the bladder and kidney samples were collected, homogenized, and serially diluted, and the serial dilutions were plated on blood agar to determine the bacterial burden. A transurethral inoculation of E. coli established persistent infections in the kidney and bladder in the absence of antibiotic treatment (PBS control group). The mean bacterial counts in the kidney and bladder were log10 6.328±0.132 and log10 6.171+0.155 CFU/g, respectively (FIG. 12).

In data set [2] the test system is Enterobacter aerogenes ATCC13048. Kind of data set: MIC by broth microdilution (CLSI M07-A9). It counts as cell-based. Particulars: Muller Hinton broth, 37° C. The procedure: (§1) To test the antimicrobial activity of linezolid and linezolid conjugated with 3FG6P (Lzd-3FG6P) against Gram-positive and Gram-negative pathogens, the pathogens Staphylococcus aureus ATCC 25923, Klebsiella pneumoniae ATCC 35657, Acinetobacter baumannii ATCC BAA1605, Escherichia coli ATCC 25922, Enterobacter cloacae ATCC 13047, Enterobacter aerogenes ATCC13048, and Salmonella typhimurium ATCC 14028 were used. The minimal inhibitory concentration (MIC) was determined using broth microdilution following the instructions of Clinical and Laboratory Standards Institute (CLSI) document M07-A9 (Clinical and Laboratory Standards Institute. 2012. M07-A9. Methods for dilution antimicrobial susceptibility tests for bacteria that grow aerobically: approved standard. 9th ed. Clinical and Laboratory Standards Institute, Wayne, PA). Briefly, these bacterial strains were grown in Muller Hinton broth (MHB) until exponential phage (OD600<1.0). The exponentially grown testing bacteria were diluted to an OD600 of 0.01 in MHB and aliquoted in a 96 well plate. Stocks of linezolid (Lzd) and linezolid conjugated with 3FG6P (Lzd-3FG6P) were prepared at 10 mg/ml in DMSO which was diluted by two-fold serial dilutions from 64 μg/ml to 2 μg/ml (final concentration) and added to the 96 well plate. A DMSO control (0 μg/ml in the figures) was included. The plate was incubated at 37° C. and the growth of bacteria was monitored by measuring OD600 using a Cytation 5 plate reader (BioTek).

In data set [3] the test system is Klebsiella pneumoniae ATCC 35657. In words: MIC by broth microdilution (CLSI M07-A9). Type of data set: cell-based. The conditions noted are these: Muller Hinton broth, 37° C. The procedure:
as §1

Data set [4] concerns Enterobacter cloacae ATCC 13047. In words: MIC by broth microdilution (CLSI M07-A9). Type of data set: cell-based. Particulars: Muller Hinton broth, 37° C. Here is the method:
as §1
On the technique in general: In broth dilution the organism is exposed to a series of concentrations in liquid medium.

In data set [5] the test system is Salmonella typhimurium ATCC 14028. Kind of data set: MIC by broth microdilution (CLSI M07-A9). Type of data set: cell-based. Particulars: Muller Hinton broth, 37° C. The procedure:
as §1

In data set [6] the test system is Staphylococcus aureus ATCC 25923. Kind of data set: MIC by broth microdilution (CLSI M07-A9). Type of data set: cell-based. Particulars: Muller Hinton broth, 37° C. The procedure: as §1
Data set [7] relates to Acinetobacter baumannii ATCC BAA1605. In words: MIC by broth microdilution (CLSI M07-A9). The conditions noted are these: Muller Hinton broth, 37° C. Type of data set: cell-based. The procedure:
as §1

Data set [8] concerns Escherichia coli ATCC 25922. In words: MIC by broth microdilution (CLSI M07-A9). The conditions noted are these: Muller Hinton broth, 37° C. It counts as cell-based. The procedure:
as §1

In data set [9] the test system is Gram positive and Gram-negative pathogens. In words: Broth microdilution growth inhibition, summary over all tested pathogens. Type of data set: cell-based. Here is the method:
as §1, with “Stocks of linezolid (Lzd) and linezolid conjugated with 3FG6P (Lzd-3FG6P) were prepared at 10 mg/ml in DMSO which was diluted by two-fold serial dilutions from 64 μg/ml to 2 μg/ml (final concentration) and added to the 96 well plate. A DMSO control (0 μg/ml in the figures) was included.” left out

Data set [10] deals with S. aureus COL strain. In words: Growth in BHI broth with fosfomycin, with or without 4FG6P. It counts as cell-based, Staphylococcus aureus. From the text:
(§2) FIGS. 13A to 13D show a comparison of the antimicrobial activity of fosfomycin alone (FIG. 13A) and fosfomycin conjugated with 3FG6P or 4FG6P (FIG. 13B) against a fosfomycin resistant E. coli clinical isolate, and fosfomycin alone (FIG. 13C) and fosfomycin conjugated with 3FG6P or 4FG6P (FIG. 13D) against an S. aureus COL strain. The key in FIG. 13D applies to all graphs of FIGS. 13A-13D.
(§3) To test whether 3FG6P and 4FG6P can potentiate the efficacy of fosfomycin, clinical fosfomycin resistant UTI E. coli isolates harboring the fosA gene and S. aureus COL strain were obtained. Overnight cultures of these bacteria were grown in brain heart infusion (BHI) broth diluted to 0.5 McFarland turbidity and inoculated into fresh BHI broth supplemented with various concentrations of fosfomycin alone or fosfomycin supplemented with 3FG6P for E. coli or 4FG6P for S. aureus (50 μM).

Data set [11] relates to Enterobacteriaceae. Particulars: cited from earlier work.
The conditions of data set [12]: cited from earlier work.
The subject of data set [13] is fosfomycin resistant UTI E. coli isolates harboring the fosA gene. In words: Growth in BHI broth with fosfomycin, with or without 3FG6P. It counts as cell-based, Escherichia coli.
From the text: as §2, §3

Data set [14] relates to UhpT expression (HptARS system) in S. aureus LAC strain. In words: uhpT promoter-LuxABCDE bioluminescent reporter for UhpT expression. Type of data set: cell-based, Staphylococcus aureus. Particulars: 500 μM in brain heart infusion broth. The procedure: FIG. 5 illustrates a LuxABCDE reporter system for monitoring expression of the UhpT by measuring bioluminescent light signals and strong and stable induction of UhpT expression by 3FG6P. S. aureus LAC strain harboring the LuxABCDE reporter system was cultured in a brain heart infusion broth supplemented with 500 μM glucose (Glc), glucose-6-phosphate (G6P), and 3-fluoro-glucose-6-phosphate (3FG6P) and the bioluminescent signal was monitored using a Cytation 5.
To test whether 3FG6P can induce expression of the UhpT, we generated a bioluminescent reporter plasmid in which the promoter region of the uhpT was fused to the promoterless LuxABCDE operon (FIG. 5). See Francis K P, Joh D, Bellinger-Kawahara C, Hawkinson M J, Purchio T F, Contag P R. Monitoring bioluminescent Staphylococcus aureus infections in living mice using a novel luxABCDE construct. Infection and immunity. 2000; 68(6):3594-600. Epub 2000/05/19. PubMed PMID: 10816517; PMCID: PMC97648 and Karsi A, Lawrence M L. Broad host range fluorescence and bioluminescence expression vectors for Gram-negative bacteria. Plasmid. 2007; 57(3):286-95. Epub 2007/01/09. doi: 10.1016/j.plasmid.2006.11.002. PubMed PMID: 17207855 for monitoring of the expression of UhpT by measuring bioluminescent light signals.

The subject of data set [15] is Neisseria gonorrhea. Particulars: cited from earlier work.
Data set [16] has as its system Escherichia coli. Particulars: cited from earlier work.
Data set [17] deals with Acinetobacter spp. The conditions noted are these: cited from earlier work.
For data set [18], the system named is Staphylococcus epidermidis (MRSE). Particulars: cited from earlier work.
The test system of data set [19] is Proteus penneri. The conditions noted are these: cited from earlier work.
For data set [20], the system named is vancomycin-resistant Enterococcus (VRE)faecalis and faecium. Particulars: cited from earlier work.
For data set [21], the system named is Pseudomonas aeruginosa. Particulars: cited from earlier work.
Data set [22] deals with Klebsiella pneumoniae. Particulars: cited from earlier work.
For data set [23], the system named is Stenotrophomonas maltophilia. Particulars: cited from earlier work.
Data set [24] concerns methicillin-resistant Staphylococcus aureus (MRSA). The conditions noted are these: cited from earlier work.
Setting [25] is: BHI supplemented with 50 μM of 4FG6P.

On to `CC(=O)NC[C@H]1CN(c2ccc(N3CCN(C(=O)CCCOC4OC(COP(=O)(O)O)[C@@H](O)C(F)C4O)CC3)c(F)c2)C(=O)O1` (stereo partly shown) [Linezolid-3FG6P], for which the “bacterial counts in the bladder” value in data set [1] is recorded as “nearly completely cleared the infection”. The “bacterial counts in the kidney” value in [1] is recorded as “completely cleared the infection”. The minimal inhibitory concentration (MIC) (usually the lowest concentration that inhibits growth of the organism) in [2] (Klebsiella aerogenes, ATCC13048, read-out: MIC) is 4 µg/mL (≈ 6 µM); in [3] (Klebsiella pneumoniae, ATCC35657, read-out: MIC) it was below 2 µg/mL; in data set [4] (Enterobacter cloacae, ATCC13047, read-out: MIC) it was below 2 µg/mL; in data set [5] (Salmonella enterica, read-out: MIC), 8 µg/mL (≈ 12 µM); in data set [6] (Staphylococcus aureus, ATCC25923, read-out: MIC), below 2 µg/mL; in [7] (Acinetobacter baumannii, ATCCBAA1605, read-out: MIC) it was below 2 µg/mL. For the same compound, the MIC in data set [8] (Escherichia coli, ATCC25922, read-out: MIC) is 4 µg/mL (≈ 6 µM). In addition, the “concentration range inhibiting growth” value in data set [9] (both Gram positive and Gram-negative pathogens) fell in the range of 2 to 8 µg/mL.
As for `C[C@@H]1O[C@@H]1P(=O)(O)O` [fosfomycin], the “fosfomycin concentration at which growth was completely inhibited” value in data set [10] (setting [25]) was 32 µg/mL; in [13] (BHI supplemented with 50 μM of 3FG6P), at most 2 µg/mL. In addition, the “growth at fosfomycin concentrations lower than 32 μg/ml” value in data set [10] (setting [25]) is “significantly delayed”. The “fosfomycin concentration up to which growth was allowed” value in data set [10] (BHI, fosfomycin alone) is recorded as “up to 128 μg/ml”; in [13] (BHI, fosfomycin alone), “up to 128 μg/ml”. In addition, the “minimum inhibitory concentration (MIC) breakpoint” value in [11] was 8 to 32 µg/mL. In addition, the “metabolism in the liver” value in data set [12] (in vivo) is reported as “not metabolized in the liver”. Also, the oral bioavailability in [12] (oral administration) is recorded as 30-37%.
Turning to `O=C[C@H](O)[C@@H](O)[C@H](O)[C@H](O)COP(=O)(O)O` [glucose-6-phosphate], the “duration of induced bioluminescent light signals” value in [14] is 8 h.
For “(S)—N-[[3-[3-fluoro-4-(N-1-piperazinyl)phenyl]-2-oxo-5-oxazolidinyl]methyl]acetamide [Linezolid]”, the MIC90 – broadly, the lowest concentration that inhibits either 90% of growth or 90% of the strains tested, depending on the study – in [15] is 16 µg/mL; in data set [18], 1 to 4 µg/mL and 1 µg/mL; in data set [20], 1 to 4 µg/mL and 2 µg/mL; in data set [24], 1 to 4 µg/mL and 2 µg/mL. In addition, the antimicrobial activity entry in [16], in data set [17], in [19], in data set [21], in [22] and in data set [23] was “not active” each time. In addition, in data set [1], the “bacterial counts in the bladder” value was “did not reduce bacterial counts”. Besides, in data set [1], the “bacterial counts in the kidney” value is “did not reduce bacterial counts”. Moreover, the MIC in data set [2] was above 64 µg/mL; in [3], above 64 µg/mL; in data set [4], above 64 µg/mL; in data set [5], above 64 µg/mL; in [6], below 2 µg/mL; in data set [6] (listed as linezolid), “less than 2 μg/ml”. The MIC in data set [7] and in data set [8] was above 64 µg/mL throughout. The “concentration failing to inhibit growth” value in data set [9] (Gram-negative pathogens) is 64 µg/mL.

Values taken from patent US20230372492A1, “DRUGS CONJUGATED WITH HEXOSE PHOSPHATE AND METHODS OF MAKING AND USING SAME” (MISSISSIPPI STATE UNIVERSITY, priority 2020, published 2023).
